According to patent publication US20160159814A1, “GLYCINE TRANSPORTER INHIBITOR” (TAISHO PHARMACEUTICAL CO., LTD., priority 2013, published 2016):

Biological target: T1, human type 1 glycine transporter (GlyT1) (Homo sapiens, UniProt P48067)
T1 construct: T98G cells (glioma cells) expressing human type 1 glycine transporter (GlyT1) were used; endogenous in cells; host or cells: T98G cells (human glioma cells)
T1 sequence (P48067 1-706): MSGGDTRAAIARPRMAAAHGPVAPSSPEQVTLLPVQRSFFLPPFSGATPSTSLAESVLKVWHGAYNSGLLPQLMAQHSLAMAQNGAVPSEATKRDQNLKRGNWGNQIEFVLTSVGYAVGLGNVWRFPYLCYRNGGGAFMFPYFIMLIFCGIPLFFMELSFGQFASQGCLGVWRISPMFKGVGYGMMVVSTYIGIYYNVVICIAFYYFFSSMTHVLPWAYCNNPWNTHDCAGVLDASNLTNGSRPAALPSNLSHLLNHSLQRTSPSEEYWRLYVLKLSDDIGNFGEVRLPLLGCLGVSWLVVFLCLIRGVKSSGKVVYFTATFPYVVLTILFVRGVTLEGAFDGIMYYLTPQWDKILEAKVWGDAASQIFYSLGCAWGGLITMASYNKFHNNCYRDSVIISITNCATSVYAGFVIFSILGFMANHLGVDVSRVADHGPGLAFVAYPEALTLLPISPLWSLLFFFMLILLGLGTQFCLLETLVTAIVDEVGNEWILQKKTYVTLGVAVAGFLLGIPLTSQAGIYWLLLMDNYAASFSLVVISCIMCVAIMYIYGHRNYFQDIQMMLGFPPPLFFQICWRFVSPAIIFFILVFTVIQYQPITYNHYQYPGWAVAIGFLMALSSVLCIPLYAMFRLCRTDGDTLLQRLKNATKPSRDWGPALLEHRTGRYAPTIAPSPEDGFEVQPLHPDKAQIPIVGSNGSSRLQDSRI
Assay: Glycine uptake inhibition experiment ([3H] glycine uptake in T98G cells expressing GlyT1)
Format: cell-based
Conditions: glycine uptake inhibition
Procedure: Glycine Uptake Inhibition Experiment
A glycine uptake experiment was conducted in accordance with the method published in Neuron, 8, 927-935, 1992. In the experiment, T98G cells (glioma cells) expressing human type 1 glycine transporter (GlyT1) were used. The T98G cells were seeded in a 96-well plate at 2.0×10^4 cells/well and cultured overnight in a CO2 incubator. The test substance was dissolved in a 100% DMSO solution and then dissolved in a 10 mM HEPES buffer solution (pH 7.4) containing 150 mM sodium chloride, 1 mM calcium chloride, 5 mM potassium chloride, 1 mM magnesium chloride, 10 mM glucose and 0.2% bovine serum albumin. After removing the cell culture medium, the test substance was subjected to a 10-min pretreatment. Subsequently, the test substance and [^3H] glycine (final concentration: 250 nM) were added to the cells and reaction was performed at room temperature for 15 minutes. After the end of the reaction, the extracellular fluid was aspirated with a manifold to remove excess labeled glycine present outside the cells, and then the cells were lysed with a 0.5 M aqueous sodium hydroxide solution. The glycine content in the cells was determined by measuring the radioactivity in the cell lysate with a liquid scintillation counter. Glycine uptake in the presence of 10 μM ALX5407 was defined as non-specific uptake, and the value calculated by subtracting the amount of the non-specific uptake from the total uptake in the absence of 10 μM ALX5407 was defined as specific uptake. In addition, glycine uptake inhibitory activity (IC50 value) was calculated from an inhibition curve at the concentrations of each test substance ranging from 10^−9 to 10^−5 M. It should be noted that ALX5407 is an HCl salt of N-[(3R)-3-([1,1′-biphenyl]-4-yloxy)-3-(4-fluorophenyl)propyl]-N-methylglycine.

Compound | IC50 [nM]
CC(O)c1cccc2c1C(F)(F)C(=O)N2Cc1cccc(Cl)n1 (single isomer, unassigned) [Compound 5, 1-[(6-chloropyridin-2-yl)methyl]-3,3-difluoro-4-(1-hydroxyethyl)-1,3-dihydro-2H-indol-2-one] | 300
CC(O)c1cccc2c1C(F)(F)C(=O)N2Cc1cncc(Cl)c1 (single isomer, unassigned) [Compound 6, 1-[(5-chloropyridin-3-yl)methyl]-3,3-difluoro-4-(1-hydroxyethyl)-1,3-dihydro-2H-indol-2-one] | 3700
O=C1N(Cc2cccc(Cl)n2)c2cccc(C(O)C(F)(F)F)c2C1(F)F (single isomer, unassigned) [Compound 8, 1-[(6-chloropyridin-2-yl)methyl]-3,3-difluoro-4-(2,2,2-trifluoro-1-hydroxyethyl)-1,3-dihydro-2H-indol-2-one] | 800
N#Cc1cccc(CN2C(=O)C(F)(F)c3c(C(O)C(F)(F)F)cccc32)n1 (single isomer, unassigned) [Compound 18, 6-{[3,3-difluoro-2-oxo-4-(2,2,2-trifluoro-1-hydroxyethyl)-2,3-dihydro-1H-indol-1-yl]methyl}pyridine-2-carbonitrile] | 3300
N#Cc1cccc(CN2C(=O)C(F)(F)c3c(C(O)C(F)(F)F)cccc32)n1 (single isomer, unassigned) [Compound 19, 6-{[3,3-difluoro-2-oxo-4-(2,2,2-trifluoro-1-hydroxyethyl)-2,3-dihydro-1H-indol-1-yl]methyl}pyridine-2-carbonitrile] | 60
N#Cc1cc(CN2C(=O)C(F)(F)c3c(C(O)C(F)(F)F)cccc32)ccn1 (single isomer, unassigned) [Compound 20, 4-{[3,3-difluoro-2-oxo-4-(2,2,2-trifluoro-1-hydroxyethyl)-2,3-dihydro-1H-indol-1-yl]methyl}pyridine-2-carbonitrile] | 2900
N#Cc1cc(CN2C(=O)C(F)(F)c3c(C(O)C(F)(F)F)cccc32)ccn1 (single isomer, unassigned) [Compound 21, 4-{[3,3-difluoro-2-oxo-4-(2,2,2-trifluoro-1-hydroxyethyl)-2,3-dihydro-1H-indol-1-yl]methyl}pyridine-2-carbonitrile] | 71
O=C1N(Cc2cncc(Cl)c2)c2cccc(C(O)C(F)(F)F)c2C1(F)F (single isomer, unassigned) [Compound 22, 1-[(5-chloropyridin-3-yl)methyl]-3,3-difluoro-4-(2,2,2-trifluoro-1-hydroxyethyl)-1,3-dihydro-2H-indol-2-one] | 1900
CC(O)c1cccc2c1C(F)(F)C(=O)N2Cc1ccnc(Cl)c1 (single isomer, unassigned) [Compound 34, 1-[(2-chloropyridin-4-yl)methyl]-3,3-difluoro-4-(1-hydroxyethyl)-1,3-dihydro-2H-indol-2-one] | 4600
O=C1N(Cc2ccnc(Cl)c2)c2cccc(C(O)C(F)F)c2C1(F)F (single isomer, unassigned) [Compound 35] | 280
O=C1N(Cc2cncc(Cl)c2)c2ccc(F)c(C(O)C(F)(F)F)c2C1(F)F (single isomer, unassigned) [Compound 49, 1-[(5-chloropyridin-3-yl)methyl]-3,3,5-trifluoro-4-(2,2,2-trifluoro-1-hydroxyethyl)-1,3-dihydro-2H-indol-2-one] | 1500
O=C1N(Cc2cncc(Cl)c2)c2ccc(F)c(C(O)C(F)(F)F)c2C1(F)F (single isomer, unassigned) [Compound 50, 1-[(5-chloropyridin-3-yl)methyl]-3,3,5-trifluoro-4-(2,2,2-trifluoro-1-hydroxyethyl)-1,3-dihydro-2H-indol-2-one] | 170
CC(c1cccc(Cl)n1)N1C(=O)C(F)(F)c2c([C@H](C)O)cccc21 (single isomer, unassigned) [Compound 52] | 330
CC(c1cccc(Cl)n1)N1C(=O)C(F)(F)c2c([C@H](C)O)cccc21 (single isomer, unassigned) [Compound 53] | 140
N#Cc1cc(CN2C(=O)C(F)(F)c3c(C(O)C(F)F)cccc32)ccn1 (single isomer, unassigned) [Compound 109, 4-{[4-(2,2-difluoro-1-hydroxyethyl]-3,3-difluoro-2-oxo-2,3-dihydro-1H-indol-1-yl]methyl}pyridine-2-carbonitrile] | 88
N#Cc1cc(CN2C(=O)C(F)(F)c3c(C(O)C(F)F)cccc32)ccn1 (single isomer, unassigned) [Compound 110, 4-{[4-(2,2-difluoro-1-hydroxyethyl)-3,3-difluoro-2-oxo-2,3-dihydro-1H-indol-1-yl]methyl}pyridine-2-carbonitrile] | 2100
O=C1N(Cc2cncc(Cl)c2)c2cccc(C(O)C(F)F)c2C1(F)F (single isomer, unassigned) [Compound 120, 1-[(5-chloropyridin-3-yl)methyl]-4-(2,2-difluoro-1-hydroxyethyl)-3,3-difluoro-1,3-dihydro-2H-indol-2-one] | 57
O=C1N(Cc2cncc(Cl)c2)c2ccc(F)c(C(O)C(F)F)c2C1(F)F (single isomer, unassigned) [Compound 135, 1-[(5-chloropyridin-3-yl)methyl]-4-(2,2-difluoro-1-hydroxyethyl)-3,3,5-trifluoro-1,3-dihydro-2H-indol-2-one] | 57
O=C1N(Cc2cncc(Cl)c2)c2ccc(F)c(C(O)C(F)F)c2C1(F)F (single isomer, unassigned) [Compound 136] | 1700

The next compounds have a lower IC50 than those just listed; values first:

IC50 [nM] | Compound
48 | O=C1N(Cc2cnc3ccccc3c2)c2cccc(C(O)C(F)F)c2C1(F)F (single isomer, unassigned) [Compound 143, 4-(2,2-difluoro-1-hydroxyethyl)-3,3-difluoro-1-(quinolin-3-ylmethyl)-1,3-dihydro-2H-indol-2-one]
38 | O=C1N(Cc2cncc(Cl)c2)c2cccc(C(O)C(F)(F)F)c2C1(F)F (single isomer, unassigned) [Compound 23, 1-[(5-chloropyridin-3-yl)methyl]-3,3-difluoro-4-(2,2,2-trifluoro-1-hydroxyethyl)-1,3-dihydro-2H-indol-2-one]
18 | CC(O)c1cccc2c1C(F)(F)C(=O)N2Cc1ccnc(Cl)c1 (single isomer, unassigned) [Compound 33, 1-[(2-chloropyridin-4-yl)methyl]-3,3-difluoro-4-(1-hydroxyethyl)-1,3-dihydro-2H-indol-2-one]
17 | O=C1N(Cc2cccc(Cl)n2)c2cccc(C(O)C(F)(F)F)c2C1(F)F (single isomer, unassigned) [Compound 9, 1-[(6-chloropyridin-2-yl)methyl]-3,3-difluoro-4-(2,2,2-trifluoro-1-hydroxyethyl)-1,3-dihydro-2H-indol-2-one]
14 | CC(O)c1cccc2c1C(F)(F)C(=O)N2Cc1cncc(Cl)c1 (single isomer, unassigned) [Compound 7, 1-[(5-chloropyridin-3-yl)methyl]-3,3-difluoro-4-(1-hydroxyethyl)-1,3-dihydro-2H-indol-2-one]
13 | O=C1N(Cc2ccnc(Cl)c2)c2cccc(C(O)C(F)F)c2C1(F)F (single isomer, unassigned) [Compound 36, 1-[(2-chloropyridin-4-yl)methyl]-4-(2,2-difluoro-1-hydroxyethyl)-3,3-difluoro-1,3-dihydro-2H-indol-2-one]
7.9 | O=C1N(Cc2cccc(Cl)n2)c2cccc(C(O)C(F)F)c2C1(F)F (single isomer, unassigned) [Compound 126, 1-[(6-chloropyridin-2-yl)methyl]-4-(2,2-difluoro-1-hydroxyethyl)-3,3-difluoro-1,3-dihydro-2H-indol-2-one]
6.5 | CC(O)c1cccc2c1C(F)(F)C(=O)N2Cc1cccc(Cl)n1 (single isomer, unassigned) [Compound 4]
